Data published in ChEMBL document CHEMBL5380773, “Novel Feleucin-K3-Derived Peptides Modified with Sulfono-γ-AA Building Blocks Targeting Pseudomonas aeruginosa and Methicillin-Resistant Staphylococcus aureus Infections” (J Med Chem, 2023).
Active and inactive are the calls of the source. No cut-off for these calls is given here. Numbered stars: 1 amine (or outer) side, 2 acyl side, 3 side chain; on linkers, the order of the positions; unused ones are H or OH. Square brackets hold non-standard residues; d marks the D form. Peptide text beside a SMILES is read from it. * marks the point of attachment. X2 = CC(C)C[C@H](N)CN(CC(=O)[*:2])[*:1]; X1 = O=S(=O)(c1ccc(I)cc1)*

Experiments:
Pseudomonas aeruginosa [1] = assay: Bactericidal activity against Pseudomonas aeruginosa ATCC 27853 at 4 times MIC after 5 mins by time kill assay; type: functional, organism-based
Pseudomonas aeruginosa [2] = assay: Induction of ROS generation in Pseudomonas aeruginosa ATCC 27853 by DCFH-DA dye based fluorescence assay; type: functional, organism-based; settings: TDE = time-dependent effect

## CC(C)C[C@H](N)CN(CC(=O)N[C@@H](CCCCN)C(=O)N[C@@H](CC(C)C)C(=O)N[C@@H](CC(C)C)C(=O)N[C@@H](CCCCN)C(=O)N[C@@H](CCCCN)C(=O)N[C@@H](CC(C)C)C(=O)N[C@@H](CC(C)C)C(N)=O)S(=O)(=O)c1ccc(I)cc1 (X1-[X2]KLLKKLL-NH2)
Pseudomonas aeruginosa [1]
  Activity: Active
Pseudomonas aeruginosa [2]
  Activity: Tde
